# Measurements from publication PMC9511483, “Refinement of Computational Access to Molecular Physicochemical Properties: From Ro5 to bRo5” (Journal of Medicinal Chemistry, 2022).
# Legend:
# [1] = set-up: method as in Clark 1999; conditions: atom selection N, O, S, P, H; ref Clark 1999; cited from earlier work
# [2] = BRlogD chromatographic lipophilicity (XBridge Shield RP18); format: physicochemical
# Procedure: (§1) Mobile phases consisted of an isocratic solution of 20 mM ammonium acetate at pH 7.0 and acetonitrile at various percentages (see specific method). Samples were dissolved in buffer/acetonitrile at concentrations ranging from 50 to 100 μg/mL. Chromatographic measurements were analyzed in duplicate. Then 10 μL of each solution (volume of injection) were injected at an isocratic 1 mL/min flow rate, analyzed at 30 °C (oven temperature). Each chromatographic descriptor required a specific HPLC method (see below).
# The three compounds previously dissolved in ACN were injected into the X-Bridge column (mobile phase: 40% buffer, 60% ACN), and the retention times and dead time (t0, baseline disturbance) were recorded. Consequently, capacity factor log k′60 was calculated (log k′60 = [tR – t0]/t0). The corresponding BRlogD value was obtained using equation: BRlogD = 3.31 × log k′60 + 2.79.[12] The used standard is acetone, caffeine, ibuprophen, lidocaine, phenol and a mixture of uracile, acetophenone and toluene.
# [3] = log kW^IAM chromatographic lipophilicity (IAM.PC.DD2 column); format: physicochemical; conditions: extrapolated to 100% buffer, pH 7.0
# Procedure: as §1
# Dissolved samples were injected into column IAM.PC.DD2, and retention times were recorded at different mobile phase percentages (from 10 to 50% ACN). Capacity factor was calculated for each mobile phase condition using equation: k′ = [tR – t0]/t0) t0 being the retention time of a nonretained molecule (citric acid). The log kW^IAM value for each molecule was calculated by extrapolating the 100% buffer value (0% ACN) from the equation obtained with the five mobile phase conditions, previously mentioned. In addition, five standards (caffeine, carbamazepine, ketoprofen, theobromine, and toluene) were examined on a daily basis.[33]
# [4] = log k′80 PLRP-S chromatographic lipophilicity; format: physicochemical; conditions: 80% ACN
# Procedure: as §1
# The retention times of the three samples were recorded at 80% ACN and capacity factors were calculated. Moreover, gold standards (acetone, caffeine, phenol, uracil–acetophenone--toluene mix and benzene) were daily checked.[15]
# [5] = log Ptol, miniaturized shake-flask toluene/water; format: physicochemical
# Procedure: log Ptol was determined with an automated, miniaturized shake flask method in a 96-well format according to the protocol described by Shalaeva and co-workers.[24]
# [6] = Δlog kW^IAM polarity descriptor; format: physicochemical; conditions: experimental log kW^IAM minus clog kW^IAM from BRlogD
# From the text: Δlog kW^IAM was earlier defined by Grumetto et al.[48] as (Δlog kW^IAM = experimental log kW^IAM – clog kW^IAM (log kW^IAM for neutral and nonpolar compounds with PSA = 0). Moreover, clog kW^IAM was correlated to log P (octanol/water)[48] and more recently to BRlogD[12] with equation (clog kW^IAM = BRlogD* 0.92–1.03). Therefore, the measurement of BRlogD and log kW^IAM for the three samples allowed to calculate polarity descriptor Δlog kW^IAM.
# [7] = EPSA supercritical fluid chromatography polarity; format: physicochemical; conditions: SFC, Chirex 3014
# Procedure: EPSA was determined following the SFC protocol by Goetz and co-workers.[17] Briefly, a polar stationary phase (Chirex 3014) and a nonpolar mobile phase (supercritical CO2 with the addition of 20 mM ammonium formate in methanol as a modifier) were used to enable separation of compounds based on their polarity. The modifier was varied in 11 min from 5% to 60% at 5%/min in a linear gradient, holding at 60% for 4.9 min and reverting to the original 5% in 0.1 min. The flow rate was 5 mL/min, with the outlet back pressure set to 100 bar instead of 140 bar of the original method. Samples were dissolved in DMSO, the injection volume was 5 μL. The column temperature was set to 40 °C.
# [8] = Δlog Poct-tol IMHB propensity; format: physicochemical; conditions: difference between log Poct and log Ptol
# From the text: Δlog Poct-tol([24]) (the difference between log Poct and log Ptol) is an indicator of the capacity of a compound to expose HDon groups, and thus it quantifies the molecular capacity to form dynamic IMHBs. […] Our data support that Saquinavir is the compound with the highest capacity to form IMHB, its Δlog Poct-tol being 0.79. Pomalidomide and CMP 98 show poorer propensity to mask HDon groups, although not negligible.
# [9] = PLRP-S retention at 50-100% ACN (chameleonicity); format: physicochemical; conditions: mobile phases 50 to 100% ACN
# From the text: In a recent paper, we proposed to monitor the propensity of compounds to assume a chameleonic behavior through the analysis of the variation of the capacity factor in a nonpolar polymeric chromatographic system, named PLRP-S.[16] Here we applied the same approach and determined the retention of the three compounds in the PLRP-S system with various mobile phases (from 50 to 100% ACN). According to the reverse-phase (RP) nature of the system, the retention time (and thus log k′ PLRP-S) of lipophilic molecules is expected to decrease when increasing the amount of acetonitrile in the mobile phase. […] This experimental finding can be explained by a propensity of Saquinavir to change its conformation in a nonpolar environment, masking its polarity supporting the chameleonic properties of this compound.
# Thermodynamic solubility = format: physicochemical; conditions: for solubility: 25 °C, thermodynamic from solid, thermodynamic solubility, read-out: Solubility 25ºC log S (converted)
# Procedure: Table S1: Thermodynamic solubility and permeability data of the three selected compounds.
# Solubility 25 °C Permeability
# Molecules log S (mol/l) (cm/s x 10 )
# [10] = SI Table S1; cited from earlier work
# Caco-2 = conditions: cited from earlier work
# [11] = set-up: method as in PMID 29608068; conditions: cited from earlier work
structure (smiles),measurement,setting,value
CC(=O)Nc1ccc(O)cc1 [Acetaminophen],3D PSA PSA Clark 1999,[1],58.5 Å2
O=C1CN=C(c2ccccn2)c2cc(Br)ccc2N1 [Bromazepam],3D PSA PSA Clark 1999,[1],57.4 Å2
Cc1ncsc1-c1ccc(CNC(=O)[C@@H]2C[C@H](O)CN2C(=O)[C@@H](NC(=O)COCCOCCOCCOCCOCCOCC(=O)N[C@H](C(=O)N2C[C@@H](O)C[C@H]2C(=O)NCc2ccc(-c3scnc3C)cc2)C(C)(C)C)C(C)(C)C)cc1 [CMP 98],chromatographic logD,"[2]; XBridge Shield RP18 HPLC column, 60% ACN, ammonium acetate pH 7.0",1.38
same,log kW^IAM,[3],2.34
same,log k´80 PLRP-S,[4],-0.84
same,log Ptol (SF),[5],-0.24
same,Δlog kW^IAM,[6],2.1
same,EPSA,[7],104 A^2
same,Δlog P (Δlog Poct-tol),[8],1.62
same,log k′ PLRP-S behaviour with increasing acetonitrile (chameleonicity index),[9],some deviation from linearity
same,solubility,Thermodynamic solubility,331 µM
same,water solubility,Thermodynamic solubility; SI Table S1,water-soluble
same,PAMPA permeability,[10],not PAMPA permeable
Cn1c(=O)c2c(ncn2C)n(C)c1=O [Caffeine],3D PSA PSA Clark 1999,[1],59.2 Å2
O=c1ccc2ccccc2o1 [Coumarin],3D PSA PSA Clark 1999,[1],33.9 Å2
Nc1nnc(-c2cccc(Cl)c2Cl)c(N)n1 [Lamotrigine],3D PSA PSA Clark 1999,[1],96.4 Å2
CN1C(=O)C(O)N=C(c2ccccc2Cl)c2cc(Cl)ccc21 (stereo not drawn) [Lormetazepam],3D PSA PSA Clark 1999,[1],55.9 Å2
Cc1cc(=O)n(-c2ccccc2)n1C [Phenazone],3D PSA PSA Clark 1999,[1],28 Å2
Nc1cccc2c1C(=O)N(C1CCC(=O)NC1=O)C2=O (stereo not drawn) [Pomalidomide],BRlogD,"[2]; 60% ACN, ammonium acetate pH 7.0",1.41
same,log kW^IAM,[3],0.91
same,log k´80 PLRP-S,[4],-0.65
same,log Ptol (SF),[5],-0.22
same,Δlog kW^IAM,[6],0.64
same,EPSA,[7],82 A^2
same,Δlog P (Δlog Poct-tol),[8],1.63
same,log k′ PLRP-S behaviour with increasing acetonitrile (chameleonicity index),[9],about in line with expectations
same,solubility,Thermodynamic solubility,28.2 µM
same,Permeability (Caco-2),"Caco-2; Caco-2, ref 13 (SI)",24.9 cm/s x 10^-6
CC(=O)[C@H]1CC[C@H]2[C@@H]3CCC4=CC(=O)CC[C@]4(C)[C@H]3CC[C@]12C [Progesterone],3D PSA PSA Clark 1999,[1],41.2 Å2
O=C(O)c1ccccc1O [Salicylic Acid],3D PSA PSA Clark 1999,[1],62.5 Å2
CC(C)(C)NC(=O)[C@@H]1C[C@@H]2CCCC[C@@H]2CN1C[C@@H](O)[C@H](Cc1ccccc1)NC(=O)[C@H](CC(N)=O)NC(=O)c1ccc2ccccc2n1 [Saquinavir],BRlogD,[2]; pH 7,2.85
same,log kW^IAM,[3],3.44
same,log k´80 PLRP-S,[4],-0.1
same,log Ptol (SF),[5],2.06
same,Δlog kW^IAM,[6],1.85
same,EPSA,[7],94 A^2
same,Δlog P (Δlog Poct-tol),[8],0.79
same,log k′ PLRP-S behaviour with increasing acetonitrile (chameleonicity index),[9],significantly higher than expected
same,Permeability (Caco-2 with efflux inhibiton),"Caco-2; Caco-2 with efflux inhibition, ref 11 (SI)",5.0 cm/s x 10^-6
same,Permeability mechanism,Caco-2; ref 11 (SI),Mainly active transport
same,pKa,[11],7.1
Cn1c(=O)c2[nH]cnc2n(C)c1=O [Theophylline],3D PSA PSA Clark 1999,[1],74.7 Å2
